Tests used:
Assay in all cases: fitness (endpoint OD595 vs no drug) (fraction); higher = more growth
S. aureus DSM 20231 = test system: S. aureus DSM 20231
Outline: (§1)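 Fitness is computed from the optical density at which cultures reach stationary phase, divided by the robust mean of no-drug control wells. Any value above 1 is set to 1. Cultures started at OD595 0.01 in 384-well plates with TSB, LB Lennox or CY at 37 °C, and OD595 was read every 30 min for 14 h against a first-reading background.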

S. aureus Newman = test system: S. aureus Newman
Outline: as §1

B. subtilis 168 = test system: B. subtilis 168
Outline: as §1

S. pneumoniae D39V = test system: S. pneumoniae D39V
Outline: as §1
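Further: OD595 on entry to stationary phase over no-drug wells; at most 1.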

CC(=O)Oc1ccccc1C(=O)O [Acetylsalicylic acid] + CCCCCCCCCC(=O)N[C@@H]1[C@H]([C@@H]([C@H](O[C@H]1OC2=C3C=C4C=C2OC5=C(C=C(C=C5)[C@H]([C@H]6C(=O)N[C@@H](C7=C(C(=CC(=C7)O)OC8[C@H]([C@H]([C@@H]([C@H](O8)CO)O)O)O)C9=C(C=CC(=C9)[C@H](C(=O)N6)NC(=O)[C@@H]4NC(=O)[C@@H]1C2=CC(=CC(=C2)OC2=C(C=CC(=C2)[C@H](C(=O)N[C@H](CC2=CC(=C(O3)C=C2)Cl)C(=O)N1)N)O)O)O)C(=O)O)O[C@H]1[C@@H]([C@H]([C@@H]([C@H](O1)CO)O)O)NC(=O)C)Cl)CO)O)O [Teicoplanin]
fitness, S. aureus DSM 20231, main component drawn
Conditions | partner 0.1562 µg/mL | partner 0.3125 µg/mL | partner 0.625 µg/mL
first compound 250 µg/mL | 0.957 | 0.98 | 0.979
first compound 500 µg/mL | 0.887 | 0.894 | 0.871

CC(=O)Oc1ccccc1C(=O)O [Acetylsalicylic acid] + CC[C@H]1OC(=O)[C@H](C)[C@@H](O[C@H]2C[C@@](C)(OC)[C@@H](O)[C@H](C)O2)[C@H](C)[C@@H](O[C@@H]2O[C@H](C)C[C@H](N(C)C)[C@H]2O)[C@](C)(O)C[C@@H](C)CN(C)[C@H](C)[C@@H](O)[C@]1(C)O [Azithromycin]
fitness, S. aureus DSM 20231
Conditions | first compound 250 µg/mL | first compound 500 µg/mL | first compound 1000 µg/mL
partner 0.125 µg/mL | 0.806 | 0.714 | 0.601
partner 0.25 µg/mL | 0.83 | 0.748 | 0.614
partner 0.5 µg/mL | 0.702 | – | 0.597

CC(=O)Oc1ccccc1C(=O)O [Acetylsalicylic acid] + COc1cc(Cc2cnc(N)nc2N)cc(OC)c1OC [Trimethoprim]
fitness, S. aureus DSM 20231
Conditions | partner 0.125 µg/mL | partner 0.25 µg/mL | partner 0.5 µg/mL | partner 1 µg/mL
first compound 250 µg/mL | 0.582 | 0.516 | 0.225 | 0.0606
first compound 500 µg/mL | – | – | 0.276 | 0.0647
first compound 1000 µg/mL | 0.4 | – | 0.23 | 0.0318

CC(=O)Oc1ccccc1C(=O)O [Acetylsalicylic acid] + N[C@@H]1CONC1=O [Cycloserine D]
S. aureus DSM 20231, first compound 250 µg/mL
Conditions | fitness
partner 0.375 µg/mL | 0.96
partner 0.75 µg/mL | 0.953
partner 1.5 µg/mL | 0.93

CC(=O)Oc1ccccc1C(=O)O [Acetylsalicylic acid] + O=C(N[C@H](CO)[C@H](O)c1ccc([N+](=O)[O-])cc1)C(Cl)Cl [Chloramphenicol]
fitness, S. aureus DSM 20231
Conditions | first compound 250 µg/mL | first compound 500 µg/mL | first compound 1000 µg/mL
partner 0.75 µg/mL | 0.688 | – | 0.307
partner 1.5 µg/mL | 0.498 | – | 0.225
partner 3 µg/mL | 0.136 | 0.098 | 0.0799

CO/N=C(\C(=O)N[C@@H]1C(=O)N2C(C(=O)O)=C(COC(N)=O)CS[C@H]12)c1ccco1 [Cefuroxime] + N[C@@H]1CONC1=O [Cycloserine D]
fitness, one replicate
Conditions | first compound 0.04875 µg/mL | first compound 0.0975 µg/mL | first compound 0.195 µg/mL | first compound 0.39 µg/mL | first compound 0.78 µg/mL | first compound 1.562 µg/mL | first compound 3.125 µg/mL | first compound 6.25 µg/mL
B. subtilis 168, partner 0.125 µg/mL | – | – | – | 0.337 | 0.303 | 0.361 | 0.287 | 0.201
B. subtilis 168, partner 0.25 µg/mL | – | – | – | 0.404 | 0.319 | 0.305 | 0.22 | 0.173
B. subtilis 168, partner 0.5 µg/mL | – | – | – | 0.306 | 0.284 | 0.228 | 0.204 | 0.111
S. aureus Newman, partner 0.375 µg/mL | 0.926 | 0.887 | 0.935 | – | – | – | – | –
S. aureus Newman, partner 0.75 µg/mL | 0.965 | 0.822 | 0.908 | – | – | – | – | –
S. aureus Newman, partner 1.5 µg/mL | 0.871 | 0.861 | 0.976 | – | – | – | – | –

fitness, B. subtilis 168
Conditions | partner 0.125 µg/mL | partner 0.25 µg/mL | partner 0.5 µg/mL
first compound 0.0975 µg/mL | 0.677 | 0.63 | 0.648
first compound 0.195 µg/mL | 0.396 | 0.41 | 0.372

CN(C)[C@@H]1C(O)=C(C(N)=O)C(=O)[C@@]2(O)C(O)=C3C(=O)c4c(O)ccc(Cl)c4[C@@](C)(O)[C@H]3C[C@@H]12 [Chlortetracycline] + CCCCCCCCCC(=O)N[C@@H]1[C@H]([C@@H]([C@H](O[C@H]1OC2=C3C=C4C=C2OC5=C(C=C(C=C5)[C@H]([C@H]6C(=O)N[C@@H](C7=C(C(=CC(=C7)O)OC8[C@H]([C@H]([C@@H]([C@H](O8)CO)O)O)O)C9=C(C=CC(=C9)[C@H](C(=O)N6)NC(=O)[C@@H]4NC(=O)[C@@H]1C2=CC(=CC(=C2)OC2=C(C=CC(=C2)[C@H](C(=O)N[C@H](CC2=CC(=C(O3)C=C2)Cl)C(=O)N1)N)O)O)O)C(=O)O)O[C@H]1[C@@H]([C@H]([C@@H]([C@H](O1)CO)O)O)NC(=O)C)Cl)CO)O)O [Teicoplanin]
S. aureus DSM 20231, first compound 0.006 µg/mL, one replicate, main component drawn
Conditions | fitness
partner 0.1562 µg/mL | 0.707
partner 0.3125 µg/mL | 0.905
partner 0.625 µg/mL | 0.997

fitness, S. aureus DSM 20231, main component drawn
Conditions | partner 0.1562 µg/mL | partner 0.3125 µg/mL | partner 0.625 µg/mL
first compound 0.012 µg/mL | 0.656 | – | 0.756
first compound 0.048 µg/mL | 0.0926 | 0.0866 | 0.0794

O=C(O)c1cn(C2CC2)c2cc(N3CCNCC3)c(F)cc2c1=O [Ciprofloxacin] + CC1=C(C(=O)O)N2C(=O)[C@@H](NC(=O)[C@H](N)c3ccccc3)[C@H]2SC1 [Cephalexin]
Conditions | fitness
B. subtilis 168, first compound 0.0098 µg/mL, partner 0.125 µg/mL | 0.886
B. subtilis 168, first compound 0.0098 µg/mL, partner 0.25 µg/mL | 0.88
B. subtilis 168, first compound 0.0098 µg/mL, partner 0.5 µg/mL | 0.829
B. subtilis 168, first compound 0.0195 µg/mL, partner 0.125 µg/mL | 0.69
B. subtilis 168, first compound 0.0195 µg/mL, partner 0.25 µg/mL | 0.68
B. subtilis 168, first compound 0.0195 µg/mL, partner 0.5 µg/mL | 0.705
B. subtilis 168, first compound 0.039 µg/mL, partner 0.125 µg/mL | 0.0501
B. subtilis 168, first compound 0.039 µg/mL, partner 0.25 µg/mL | 0.0506
B. subtilis 168, first compound 0.039 µg/mL, partner 0.5 µg/mL | 0.062
S. aureus Newman, first compound 0.0375 µg/mL, partner 0.25 µg/mL | 0.732
S. aureus Newman, first compound 0.0375 µg/mL, partner 0.5 µg/mL | 0.77
S. aureus Newman, first compound 0.0375 µg/mL, partner 1 µg/mL | 0.753
S. aureus Newman, first compound 0.075 µg/mL, partner 0.25 µg/mL | 0.727
S. aureus Newman, first compound 0.075 µg/mL, partner 0.5 µg/mL | 0.725
S. aureus Newman, first compound 0.075 µg/mL, partner 1 µg/mL | 0.733
S. pneumoniae D39V, first compound 0.125 µg/mL, partner 2 µg/mL | 0.0158
S. pneumoniae D39V, first compound 0.125 µg/mL, partner 4 µg/mL | 0.0138
S. pneumoniae D39V, first compound 0.5 µg/mL, partner 2 µg/mL | 0.0332
S. pneumoniae D39V, first compound 0.5 µg/mL, partner 4 µg/mL | 0.0303

one replicate
Conditions | fitness
B. subtilis 168, first compound 0.0098 µg/mL, partner 1 µg/mL | 0.951
B. subtilis 168, first compound 0.0195 µg/mL, partner 1 µg/mL | 0.75
B. subtilis 168, first compound 0.039 µg/mL, partner 1 µg/mL | 0.183
S. pneumoniae D39V, first compound 0.125 µg/mL, partner 0.125 µg/mL | ≥ 1
S. pneumoniae D39V, first compound 0.125 µg/mL, partner 0.25 µg/mL | 0.996
S. pneumoniae D39V, first compound 0.125 µg/mL, partner 0.5 µg/mL | 0.942
S. pneumoniae D39V, first compound 0.25 µg/mL, partner 0.125 µg/mL | 0.82
S. pneumoniae D39V, first compound 0.25 µg/mL, partner 0.25 µg/mL | 0.849
S. pneumoniae D39V, first compound 0.25 µg/mL, partner 0.5 µg/mL | 0.886
S. pneumoniae D39V, first compound 0.25 µg/mL, partner 1 µg/mL | 0.686
S. pneumoniae D39V, first compound 0.25 µg/mL, partner 2 µg/mL | 0
S. pneumoniae D39V, first compound 0.25 µg/mL, partner 4 µg/mL | 0
S. pneumoniae D39V, first compound 0.5 µg/mL, partner 0.125 µg/mL | 0.473
S. pneumoniae D39V, first compound 0.5 µg/mL, partner 0.25 µg/mL | 0.552
S. pneumoniae D39V, first compound 0.5 µg/mL, partner 0.5 µg/mL | 0.583

Source: the supplement of paper PMC10627819
